From paper PMC6943664 (Molecules, 2019)
Values joined by “and” are separate entries in the source; they are usually repeats but may differ in a detail not shown here. Equal values may be shown once. Where a name gives a salt, the structure may show the parent alone. Read-outs that look alike come from different tables or passages of the source.

What was measured:
[1] = target: T1, human recombinant MAO A (Homo sapiens, UniProt P21397); experiment: biochemical; settings: for inhibition at 10 µM: read-out: MAO A % inhibition at 10 μM, mean ±SEM of three
T1 construct: purchased Sigma Aldrich, Milan, Italy
T1 sequence (P21397 1-527): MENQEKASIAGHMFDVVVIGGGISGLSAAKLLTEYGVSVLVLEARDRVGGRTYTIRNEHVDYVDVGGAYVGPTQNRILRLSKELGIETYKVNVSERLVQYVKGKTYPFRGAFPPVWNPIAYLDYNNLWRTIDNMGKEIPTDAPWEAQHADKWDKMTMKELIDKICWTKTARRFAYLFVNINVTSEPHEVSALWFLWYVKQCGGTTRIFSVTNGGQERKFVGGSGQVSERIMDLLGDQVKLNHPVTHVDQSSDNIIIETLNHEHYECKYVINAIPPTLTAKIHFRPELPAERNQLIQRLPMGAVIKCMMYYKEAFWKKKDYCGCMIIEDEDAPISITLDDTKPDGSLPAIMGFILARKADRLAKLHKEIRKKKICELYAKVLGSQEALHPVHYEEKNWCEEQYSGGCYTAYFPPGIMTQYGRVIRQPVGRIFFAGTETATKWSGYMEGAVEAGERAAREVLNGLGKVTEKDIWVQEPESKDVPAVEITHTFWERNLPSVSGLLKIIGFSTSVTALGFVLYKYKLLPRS
Experimental: (§1) In vitro enzymatic screening toward ChEs was carried out according to the known Ellman’s protocol, by using eeAChE and esBChE as highly homologous and cheaper surrogates for human enzymes. The enzyme inhibition assays on human MAOs were performed by applying already reported methods.
(§2) All enzymes and reagents were purchased from Sigma Aldrich, Milan, Italy. Inhibition of human recombinant MAO A and B was assayed by monitoring the fluorescence of 4-hydroxyquinoline produced from the oxidation of substrate kynuramine, following a previously published method. Acetylcholinesterase from electric eel and butyrylcholinesterase from equine serum were used in the Ellman’s spectrophotometric method as already described. In all cases, a 96-well plate procedure was used with an Infinite M1000 Pro plate reader (Tecan, Cernusco sul Naviglio, Italy). Inhibition values were determined as IC50 values by statistical analysis using Prism (GraphPad Prism version 5.00 for Windows, GraphPad Software, San Diego, CA, USA).

[2] = target: T2, human recombinant MAO B (Homo sapiens, UniProt P27338); experiment: Human recombinant MAO B inhibition (kynuramine fluorescence); type: biochemical; settings: mean ±SEM of three independent experiments
T2 construct: purchased Sigma Aldrich, Milan, Italy
T2 sequence (P27338 1-520): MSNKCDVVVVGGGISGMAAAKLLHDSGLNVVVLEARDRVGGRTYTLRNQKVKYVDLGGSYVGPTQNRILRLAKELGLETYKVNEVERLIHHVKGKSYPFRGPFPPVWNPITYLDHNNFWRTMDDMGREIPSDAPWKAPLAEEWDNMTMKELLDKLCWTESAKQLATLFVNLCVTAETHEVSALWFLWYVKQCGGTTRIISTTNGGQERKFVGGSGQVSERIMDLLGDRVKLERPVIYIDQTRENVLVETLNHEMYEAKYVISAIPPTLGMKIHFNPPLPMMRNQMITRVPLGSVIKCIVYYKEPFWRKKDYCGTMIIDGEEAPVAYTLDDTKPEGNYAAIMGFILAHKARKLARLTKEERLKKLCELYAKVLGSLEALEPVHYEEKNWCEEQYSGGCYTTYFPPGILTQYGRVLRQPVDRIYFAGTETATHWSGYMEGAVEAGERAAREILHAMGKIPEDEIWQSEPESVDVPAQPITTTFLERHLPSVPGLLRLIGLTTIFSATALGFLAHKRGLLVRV
Experimental: as §1, §2

[3] = target: T3, Acetylcholinesterase from electric eel (Electrophorus electricus, UniProt O42275); experiment: biochemical; type: biochemical; settings: for IC50: AChE from electric eel, mean ±SEM of three; for inhibition at 10 µM: read-out: AChE % inhibition at 10 μM
T3 construct: purchased Sigma Aldrich, Milan, Italy
Experimental: as §1, §2

[4] = target: T4, butyrylcholinesterase from equine serum (Equus caballus, UniProt P81908); experiment: biochemical; type: biochemical; settings: for inhibition at 10 µM: read-out: BChE % inhibition at 10 μM; for IC50: BChE from equine serum, mean ±SEM of three
T4 construct: butyrylcholinesterase from equine serum; purchased Sigma Aldrich, Milan, Italy; host or cells: equine serum
Experimental: as §1, §2

[5] = human recombinant MAO, mean ±SEM of three independent experiments, read-out: MAO A IC50
[6] = human recombinant MAO, read-out: MAO B IC50
[7] = MAO B IC50, human recombinant MAO

T4 sequence (P81908 whole entry): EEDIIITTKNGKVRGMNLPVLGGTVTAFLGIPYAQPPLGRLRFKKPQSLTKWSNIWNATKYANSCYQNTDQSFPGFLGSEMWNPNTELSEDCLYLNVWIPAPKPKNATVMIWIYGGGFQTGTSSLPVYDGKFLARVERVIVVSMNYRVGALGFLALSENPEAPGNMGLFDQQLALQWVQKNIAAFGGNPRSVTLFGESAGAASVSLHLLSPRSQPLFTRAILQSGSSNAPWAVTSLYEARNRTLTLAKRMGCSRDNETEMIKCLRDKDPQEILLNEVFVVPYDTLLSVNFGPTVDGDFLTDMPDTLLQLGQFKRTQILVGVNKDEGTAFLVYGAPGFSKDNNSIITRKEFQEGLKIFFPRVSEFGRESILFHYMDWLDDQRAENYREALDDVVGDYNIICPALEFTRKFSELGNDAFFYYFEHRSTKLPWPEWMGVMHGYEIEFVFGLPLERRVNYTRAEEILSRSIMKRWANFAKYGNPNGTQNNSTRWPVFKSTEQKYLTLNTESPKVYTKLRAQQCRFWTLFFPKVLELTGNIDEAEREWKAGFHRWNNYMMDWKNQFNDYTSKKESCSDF
T3 sequence (O42275 24-633): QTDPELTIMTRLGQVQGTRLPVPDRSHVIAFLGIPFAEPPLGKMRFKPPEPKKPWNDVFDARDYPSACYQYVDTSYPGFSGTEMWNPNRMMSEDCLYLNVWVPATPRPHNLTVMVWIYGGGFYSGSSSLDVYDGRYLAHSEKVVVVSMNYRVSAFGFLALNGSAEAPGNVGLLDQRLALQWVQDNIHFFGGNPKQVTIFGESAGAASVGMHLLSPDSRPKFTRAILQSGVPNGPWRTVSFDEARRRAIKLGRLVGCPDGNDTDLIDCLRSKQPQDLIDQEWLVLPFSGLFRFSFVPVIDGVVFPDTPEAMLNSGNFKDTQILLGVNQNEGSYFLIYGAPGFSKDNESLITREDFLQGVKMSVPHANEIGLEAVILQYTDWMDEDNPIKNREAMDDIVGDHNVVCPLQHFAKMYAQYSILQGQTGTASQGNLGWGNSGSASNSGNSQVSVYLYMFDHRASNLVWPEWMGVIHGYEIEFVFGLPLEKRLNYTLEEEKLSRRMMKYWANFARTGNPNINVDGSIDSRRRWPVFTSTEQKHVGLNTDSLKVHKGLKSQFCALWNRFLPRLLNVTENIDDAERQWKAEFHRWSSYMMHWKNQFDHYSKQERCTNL

## O=c1cc(CN2CCCC2)c2ccc(OCc3cccc(Cl)c3)cc2o1 [compound 15, 7-[(3-chlorobenzyl)oxy]-4-(pyrrolidin-1-ylmethyl)-2H-chromen-2-one]
[1]; [5]
  IC50: 1120 ± 10 nM
[2]; [6]
  IC50: 152 ± 20 nM
[3]
  IC50: 6600 ± 900 nM
[4]
  inhibition at 10 µM: 14 ± 2%

## CNCc1cc(=O)oc2cc(OCc3cccc(F)c3)ccc12 [compound 9, 7-[(3-fluorobenzyl)oxy]-4-[(methylamino)methyl]-2H-chromen-2-one]
[1]; [5]
  IC50: 1740 ± 40 nM
[2]; [6]
  IC50: 1.3 ± 0.1 nM
[3]
  IC50: 2700 ± 1000 nM
[4]
  IC50: 4800 ± 300 nM

## CN(Cc1ccccc1)Cc1cc(=O)oc2cc(OCc3cccc(Cl)c3)ccc12 [compound 14, 4-{[benzyl(methyl)amino]methyl}-7-[(3-chlorobenzyl)oxy]-2H-chromen-2-one]
[1]; human recombinant MAO
  inhibition at 10 µM: 28 ± 1%
[2]; [6]
  IC50: 332 ± 26 nM
[3]
  IC50: 16000 ± 1000 nM
[4]
  IC50: 6300 ± 300 nM

## NCc1cc(=O)oc2cc(OCc3cccc(Cl)c3)ccc12 [compound 18, 4-(aminomethyl)-7-[(3-chlorobenzyl)oxy]-2H-chromen-2-one]
[1]; human recombinant MAO
  inhibition at 10 µM: 46 ± 3%
[2]; [6]
  IC50: 66 ± 15 nM
[3]
  IC50: 17000 ± 4000 nM
[4]
  inhibition at 10 µM: 20 ± 7%

## CNCc1cc(=O)oc2cc(OCc3ccccc3)ccc12 [compound 7, 7-(benzyloxy)-4-[(methylamino)methyl]-2H-chromen-2-one]
[1]; [5]
  IC50: 530 ± 10 nM
[2]; [6]
  IC50: 2.1 ± 0.2 nM
[3]
  inhibition at 10 µM: 26 ± 5%
[4]
  inhibition at 10 µM: 17 ± 1%

## C#CCN(C)Cc1cc(=O)oc2cc(OCc3cccc(Cl)c3)ccc12 [compound 23, 7-[(3-Chlorobenzyl)oxy]-4-{[methyl(prop-2-yn-1-yl)amino]methyl}-2H-chromen-2-one hydrochloride]
[1]
  IC50: 1700 ± 100 nM
[2]; [7]
  IC50: 84 ± 2 nM
[3]
  IC50: 5600 ± 700 nM
[4]
  inhibition at 10 µM: 28 ± 1%

## CNCc1cc(=O)oc2c(C)c(OCc3cccc(Cl)c3)ccc12 [compound 10, 7-[(3-Chlorobenzyl)oxy]-8-methyl-4-[(methylamino)methyl]-2H-chromen-2-one]
[1]; [5]
  IC50: 1000 ± 100 nM
[2]; [6]
  IC50: 170 ± 10 nM
[3]
  IC50: 7200 ± 600 nM
[4]
  inhibition at 10 µM: 46 ± 2%

## CNC(=O)CNCc1cc(=O)oc2cc(OCc3cccc(Cl)c3)ccc12 [compound 25, N^2-({7-[(3-Chlorobenzyl)oxy]-2-oxo-2H-chromen-4-yl}methyl)-N^1-methylglycinamide]
[1]; [5]
  IC50: 2600 ± 100 nM
[2]; [6]
  IC50: 1.1 ± 0.3 nM
[3]
  IC50: 5300 ± 1400 nM
[4]
  inhibition at 10 µM: < 5%

## CNCc1cc(=O)oc2cc(OCc3cccc(N(C)C)c3)ccc12 [compound 4, 7-{[3-(Dimethylamino)benzyl]oxy}-4-[(methylamino)methyl]-2H-chromen-2-one]
[1]; human recombinant MAO
  inhibition at 10 µM: 49 ± 1%
[2]; [6]
  IC50: 570 ± 50 nM
[3]
  IC50: 6000 ± 1500 nM
[4]
  inhibition at 10 µM: 34 ± 5%

## CNCc1cc(=O)oc2cc(OCc3cc(OC)cc(OC)c3)ccc12 [compound 5, 7-[(3,5-Dimethoxybenzyl)oxy]-4-[(methylamino)methyl]-2H-chromen-2-one]
[1]; [5]
  IC50: 1000 ± 100 nM
[2]; [6]
  IC50: 67 ± 5 nM
[3]
  IC50: 11000 ± 2000 nM
[4]
  inhibition at 10 µM: 20 ± 4%

## C#CCNCc1cc(=O)oc2cc(OCc3cccc(Cl)c3)ccc12 [compound 22, 7-[(3-Chlorobenzyl)oxy]-4-[(prop-2-yn-1-ylamino)methyl]-2H-chromen-2-one]
[1]; [5]
  IC50: 1100 ± 100 nM
[2]; [6]
  IC50: 4.1 ± 1.1 nM
[3]
  IC50: 2100 ± 200 nM
[4]
  inhibition at 10 µM: 33 ± 6%

## O=c1cc(CN2CCOCC2)c2ccc(OCc3cccc(Cl)c3)cc2o1 [compound 17, 7-[(3-chlorobenzyl)oxy]-4-(morpholin-4-ylmethyl)-2H-chromen-2-one]
[1]; human recombinant MAO
  inhibition at 10 µM: 32 ± 3%
[2]; [6]
  IC50: 172 ± 1 nM
[3]
  IC50: 6600 ± 1100 nM
[4]
  inhibition at 10 µM: 46 ± 2%

## CNCc1cc(=O)oc2cc(OCc3cccc(Cl)c3)c(Cl)cc12 [compound 12, 6-Chloro-7-[(3-chlorobenzyl)oxy]-4-[(methylamino)methyl]-2H-chromen-2-one]
[1]; human recombinant MAO
  inhibition at 10 µM: 48 ± 1%
[2]; [6]
  IC50: 1000 ± 100 nM
[3]
  IC50: 7900 ± 400 nM
[4]
  inhibition at 10 µM: 27 ± 2%

## CN(C)C(=O)CNCc1cc(=O)oc2cc(OCc3cccc(Cl)c3)ccc12 [compound 26, N^2-({7-[(3-Chlorobenzyl)oxy]-2-oxo-2H-chromen-4-yl}methyl)-N^1,N^1-dimethylglycinamide]
[1]; [5]
  IC50: 2500 ± 500 nM
[2]; [6]
  IC50: 30 ± 1 nM
[3]
  IC50: 4300 ± 600 nM
[4]
  inhibition at 10 µM: 34 ± 2%

## CNCc1cc(=O)oc2cc(OCc3ccc4c(c3)OCO4)ccc12 [compound 6, 7-(1,3-benzodioxol-5-ylmethoxy)-4-[(methylamino)methyl]-2H-chromen-2-one]
[1]; [5]
  IC50: 1200 ± 100 nM
[2]; [6]
  IC50: 7.5 ± 0.1 nM
[3]
  IC50: 8500 ± 1800 nM
[4]
  IC50: 3400 ± 2100 nM

## O=c1cc(CNCc2ccccc2)c2ccc(OCc3cccc(Cl)c3)cc2o1 [compound 13, 4-[(benzylamino)methyl]-7-[(3-chlorobenzyl)oxy]-2H-chromen-2-one]
[1]; human recombinant MAO
  inhibition at 10 µM: 24 ± 3%
[2]; [6]
  IC50: 103 ± 1 nM
[3]
  IC50: 17000 ± 1000 nM
[4]
  IC50: 3400 ± 1300 nM

## CCCCNCc1cc(=O)oc2cc(OCc3cccc(Cl)c3)ccc12 [compound 21, 4-[(butylamino)methyl]-7-[(3-chlorobenzyl)oxy]-2H-chromen-2-one]
[1]; human recombinant MAO
  inhibition at 10 µM: 41 ± 3%
[2]; [6]
  IC50: 164 ± 2 nM
[3]
  inhibition at 10 µM: 39 ± 1%
[4]
  IC50: 4800 ± 300 nM

## CNCc1cc(=O)oc2cc(OCc3cccc(Cl)c3)c(C)cc12 [compound 11, 7-[(3-Chlorobenzyl)oxy]-6-methyl-4-[(methylamino)methyl]-2H-chromen-2-one hydrochloride]
[1]
  IC50: 580 ± 30 nM
[2]; [7]
  IC50: 68 ± 2 nM
[3]
  inhibition at 10 µM: 47.1 ± 0.3%
[4]
  inhibition at 10 µM: 48.1 ± 0.6%

## CN(C)Cc1cc(=O)oc2cc(OCc3cccc(Cl)c3)ccc12 [compound 19, 7-[(3-chlorobenzyl)oxy]-4-[(dimethylamino)methyl]-2H-chromen-2-one]
[1]; [5]
  IC50: 9200 ± 700 nM
[2]; [6]
  IC50: 213 ± 2 nM
[3]
  IC50: 8300 ± 2000 nM
[4]
  IC50: 7000 ± 1100 nM

## CN1CCN(Cc2cc(=O)oc3cc(OCc4cccc(Cl)c4)ccc23)CC1 [compound 16, 7-[(3-Chlorobenzyl)oxy]-4-[(4-methylpiperazin-1-yl)methyl]-2H-chromen-2-one]
[1]; human recombinant MAO
  inhibition at 10 µM: 32 ± 5%
[2]; [6]
  IC50: 270 nM and 273 nM
[3]
  IC50: 3100 ± 600 nM
[3]; eeAChE vs human MAO B
  AChE/MAO B IC50 ratio: 11
[4]
  IC50: 2300 ± 900 nM
[4]; esBChE vs human MAO B
  BChE/MAO B IC50 ratio: 9

## CCCNCc1cc(=O)oc2cc(OCc3cccc(Cl)c3)ccc12 [compound 20, 7-[(3-chlorobenzyl)oxy]-4-[(propylamino)methyl]-2H-chromen-2-one]
[1]; human recombinant MAO
  inhibition at 10 µM: 48 ± 1%
[2]; [6]
  IC50: 9.4 ± 3.5 nM
[3]
  IC50: 4900 ± 1400 nM
[4]
  IC50: 3600 ± 800 nM

## COc1cc(COc2ccc3c(CNCC(N)=O)cc(=O)oc3c2)cc(OC)c1 [compound 27, N^2-({7-[(3,5-dimethoxybenzyl)oxy]-2-oxo-2H-chromen-4-yl}methyl)glycinamide]
[1]; [5]
  IC50: 5900 ± 500 nM
[2]; [6]
  IC50: 13 ± 1 nM
[3]
  IC50: 4400 ± 800 nM
[4]
  inhibition at 10 µM: 41 ± 2%
